Source: US8178554B2, “Heterocyclic compounds, their preparation and their use as medicaments, in particular as anti-bacterial agents” (priority 2000, dated 2012)

What was measured:
Assay type in all cases: cell-based
E. coli (hyperpermeable) = experiment: In vitro activity, dilution in liquid medium, M.I.C. on E. coli (hyperpermeable); details: code 250IP5, incubation twenty-four hours at 37° C.
Protocol: (§1) In vitro activity, method of dilution in liquid medium
(§2) A series of tubes are prepared in which the same quantity of sterile nutritive medium is distributed. Increasing quantities of the product to be studied are distributed into each tube, then each tube is sown with a bacterial strain. After incubation for twenty-four hours in a heating chamber at 37° C., the growth inhibition is evaluated by transillumination, which allows the minimal inhibitory concentrations (M.I.C.) to be determined, expressed in μg/cml.

E. coli DC2 (permeable) = experiment: In vitro activity, dilution in liquid medium, M.I.C. on E. coli DC2 (permeable); details: code 250HT6, incubation twenty-four hours at 37° C.
Protocol: as §1, §2

E. coli = experiment: In vitro activity, dilution in liquid medium, M.I.C. on E. coli 250HT11; details: code 250HT11, incubation twenty-four hours at 37° C.
Protocol: as §1, §2

S. aureus SG511 = experiment: In vitro activity, dilution in liquid medium, M.I.C. on S. aureus SG511; details: S. aureus SG511, code 011 HT3, incubation twenty-four hours at 37° C.
Protocol: as §1, §2

S. aureus Exp 54146 = experiment: In vitro activity, dilution in liquid medium, M.I.C. on S. aureus Exp 54146; details: S. aureus Exp 54146, code 011UC4, incubation twenty-four hours at 37° C.
Protocol: as §1, §2

S. Pyogenes A561 = experiment: In vitro activity, dilution in liquid medium, M.I.C. on S. Pyogenes A561; details: S. Pyogenes A561, code 02A1UC1, incubation twenty-four hours at 37° C.
Protocol: as §1, §2

SMILES | M.I.C. (E. coli (hyperpermeable)) [µg/mL] | M.I.C. (E. coli DC2 (permeable)) [µg/mL] | M.I.C. (E. coli) [µg/mL] | M.I.C. (S. aureus SG511) [µg/mL] | M.I.C. (S. aureus Exp 54146) [µg/mL] | M.I.C. (S. Pyogenes A561) [µg/mL]
NC(=O)CNC(=O)[C@H]1CC[C@@H]2CN1C(=O)N2OS(=O)(=O)[O-].[Na+] (relative stereo) [Test A, Sodium salt of trans-N-(2-amino-2-oxoethyl)-7-oxo-6-(sulphooxy)-1,6-diazabicyclo[3,2,1]octane-2-carboxamide] | 20 | 80 | 160 | >160 | >160 | 160
[NH-]C(=O)[C@H]1CC[C@@H]2CN1C(=O)N2OS(=O)(=O)[O-].[Na+].[Na+] (relative stereo) [Test B, Sodium salt of trans-7-oxo-6-(sulphooxy)-1,6-diazabicyclo[3,2,1]octane-2-carboxamide] | 10 | 40 | 80 | >160 | >160 | >160
O=C(NCc1cccnc1)[C@H]1CC[C@@H]2CN1C(=O)N2OS(=O)(=O)[O-].[Na+] (relative stereo) [Test C, Sodium salt of trans-7-oxo-N-(3-pyridinylmethyl)-6-(sulphooxy)-1,6-diazabicyclo[3,2,1] octane-2-carboxamide] | 5 | 20 | 20 | >80 | >80 | >80
O=C(NCc1ccncc1)[C@H]1CC[C@@H]2CN1C(=O)N2OS(=O)(=O)[O-].[Na+] (relative stereo) [Test D, Sodium salt of trans-7-oxo-N-[(4-pyridinyl)methyl]-6-(sulphooxy)-1,6-diazabicyclo[3,2,1] octane-2-carboxamide] | 2.5 | 20 | 20 | >80 | >80 | >80
O=C(NCc1ccccc1)[C@H]1CC[C@@H]2CN1C(=O)N2OS(=O)(=O)[O-].[Na+] (relative stereo) [Test E, Sodium salt of trans-7-oxo-N-(phenylmethyl)-6-(sulphooxy)-1,6-diazabicyclo[3,2,1]octane-2-carboxamide] | 20 | >80 | >80 | 5 | 5 | 1.2
O=C(OCc1ccccc1)[C@H]1CC[C@@H]2CN1C(=O)N2OS(=O)(=O)[O-].[Na+] (relative stereo) [Test F, Sodium salt of phenylmethyl trans-7-oxo-6-(sulphooxy)-1,6-diazabicyclo[3,2,1]octane-2-carboxylate] |  |  |  | 160 | 160 | 
